Test results reported in ChEMBL document CHEMBL5518228, “DNA Interaction and Cleavage Modes of Anthraquinone-Fused Enediynes: A Study on Tiancimycins, Yangpumicins, and Their Semisynthetic Analogues” (J Med Chem, 2024).
Calls of active or inactive are those of the source. The calls are words filed in the database; no cut-off is given here.

Legend:
DNA = assay: Induction of duplex DNA (unknown origin) cleavage assessed as DNA cleaved fragments at AT-rich region at 1 mM incubated for 6 hr in presence of DTT by agarose gel electrophoresis analysis; type: nucleic-acid assay
[1] = Toxicity in BALB/c mouse xenografted with human KPL-4 cells assessed as pathological damage in heart at 0.05 mg/kg,iv administrated once per week for 2 weeks by H and E staining based analysis; type: organism-based; settings: in vivo, 336 h
[2] = Toxicity in BALB/c mouse xenografted with human KPL-4 cells assessed as pathological damage in lung at 0.2 mg/kg,iv administrated once per week for 2 weeks by H and E staining based analysis; type: organism-based; settings: in vivo, 336 h
Supercoiled DNA [3] = assay: Induction of supercoiled pBR322 DNA (unknown origin) cleavage at 50 uM incubated for 1 hr in presence of DTT by agarose gel electrophoresis analysis; type: nucleic-acid assay
[4] = Toxicity in BALB/c mouse xenografted with human KPL-4 cells assessed as pathological damage in kidney at 0.2 mg/kg,iv administrated once per week for 2 weeks by H and E staining based analysis; type: organism-based; settings: in vivo, 336 h
Supercoiled DNA [5] = assay: Induction of supercoiled pBR322 DNA (unknown origin) cleavage at 50 uM incubated for 1 hr in presence of GSH by agarose gel electrophoresis analysis; type: nucleic-acid assay
KPL-4 [6] = assay: Antitumor activity against human KPL-4 cells xenografted with BALB/c mouse assessed as reduction in tumor mass at 0.2 mg/kg,iv administrated once per week for 2 weeks; type: functional, organism-based
[7] = Toxicity in BALB/c mouse xenografted with human KPL-4 cells assessed as pathological damage in lung at 0.05 mg/kg,iv administrated once per week for 2 weeks by H and E staining based analysis; type: organism-based; settings: in vivo, 336 h
Supercoiled DNA [8] = assay: Induction of supercoiled pBR322 DNA (unknown origin) cleavage at 50 uM incubated for 1 hr in presence of bleomycin by agarose gel electrophoresis analysis; type: nucleic-acid assay
[9] = Toxicity in BALB/c mouse xenografted with human KPL-4 cells assessed as pathological damage in liver at 0.05 mg/kg,iv administrated once per week for 2 weeks by H and E staining based analysis; type: organism-based; settings: in vivo, 336 h
[10] = Toxicity in BALB/c mouse xenografted with human KPL-4 cells assessed as pathological damage in heart at 0.2 mg/kg,iv administrated once per week for 2 weeks by H and E staining based analysis; type: organism-based; settings: in vivo, 336 h
[11] = Toxicity in BALB/c mouse xenografted with human KPL-4 cells assessed as pathological damage in spleen at 0.05 mg/kg,iv administrated once per week for 2 weeks by H and E staining based analysis; type: organism-based; settings: in vivo, 336 h
Supercoiled DNA [12] = assay: Induction of supercoiled pBR322 DNA (unknown origin) cleavage at 50 uM incubated for 1 hr in presence of pyridine under pH 7.4 condition by agarose gel electrophoresis analysis; type: nucleic-acid assay
Supercoiled DNA [13] = assay: Induction of supercoiled pBR322 DNA (unknown origin) cleavage at 50 uM incubated for 1 hr in presence of DTT under pH 7.4 condition by agarose gel electrophoresis analysis; type: nucleic-acid assay
Supercoiled DNA [14] = assay: Induction of supercoiled pBR322 DNA (unknown origin) cleavage at 50 uM incubated for 1 hr in presence of adriamycin by agarose gel electrophoresis analysis; type: nucleic-acid assay
[15] = Cytotoxicity against human HUVEC cells incubated for 72 hrs by CCK-8 assay; type: toxicity, cell-based
A549 = assay: Cytotoxicity against human A549 cells incubated for 72 hrs by CCK-8 assay; type: functional, cell-based; settings: A549, 72 h
Supercoiled DNA [16] = assay: Induction of supercoiled pBR322 DNA (unknown origin) cleavage at 50 uM incubated for 1 hr in presence of catalase under pH 7.4 condition by agarose gel electrophoresis analysis; type: nucleic-acid assay
[17] = Cytotoxicity against human KPL-4 cells incubated for 72 hrs by CCK-8 assay; type: functional, cell-based; settings: KPL4, 72 h
[18] = Toxicity in BALB/c mouse xenografted with human KPL-4 cells assessed as pathological damage in kidney at 0.05 mg/kg,iv administrated once per week for 2 weeks by H and E staining based analysis; type: organism-based; settings: in vivo, 336 h
Jurkat = assay: Cytotoxicity against human Jurkat cells incubated for 72 hrs by CCK-8 assay; type: functional, cell-based
[19] = Toxicity in BALB/c mouse xenografted with human KPL-4 cells assessed as body weight loss at 0.2 mg/kg,iv administrated once per week for 2 weeks; type: organism-based; settings: in vivo, 336 h
[20] = Toxicity in BALB/c mouse xenografted with human KPL-4 cells assessed as pathological damage in spleen at 0.2 mg/kg,iv administrated once per week for 2 weeks by H and E staining based analysis; type: organism-based; settings: in vivo, 336 h
Caco-2 = assay: Cytotoxicity against human Caco-2 cells incubated for 72 hrs by CCK-8 assay; type: functional, cell-based; settings: Caco-2, 72 h
Supercoiled DNA [21] = assay: Induction of supercoiled pBR322 DNA (unknown origin) cleavage at 50 uM incubated for 1 hr under pH 5.5 to 6.5 condition by agarose gel electrophoresis analysis; type: nucleic-acid assay
[22] = Toxicity in BALB/c mouse xenografted with human KPL-4 cells assessed as pathological damage in liver at 0.2 mg/kg,iv administrated once per week for 2 weeks by H and E staining based analysis; type: organism-based; settings: in vivo, 336 h
Supercoiled DNA [23] = assay: Induction of supercoiled pBR322 DNA (unknown origin) cleavage assessed as relaxation of supercoiled plasmid incubated for 1 hr in presence of DTT by SYBR I Green staining based agarose gel electrophoresis analysis; type: nucleic-acid assay
Calf thymus DNA [24] = assay: Binding affinity to calf thymus DNA assessed as change in gibbs free energy in presence of ethidium bromide by competitive binding based fluorescence spectroscopic analysis; type: nucleic-acid assay; settings: Bos taurus
Supercoiled DNA [25] = assay: Induction of supercoiled pBR322 DNA (unknown origin) cleavage at 50 uM incubated for 1 hr in presence of bleomycin and ferrous ion by agarose gel electrophoresis analysis; type: nucleic-acid assay
[26] = Cytotoxicity against human NCM460 cells incubated for 72 hrs by CCK-8 assay; type: toxicity, cell-based
Calf thymus DNA [27] = assay: Binding affinity to calf thymus DNA assessed as DNA insertion by measuring change in gibbs free energy by fluorescence spectroscopic analysis; type: nucleic-acid assay; settings: Bos taurus
Calf thymus DNA [28] = assay: Binding affinity to calf thymus DNA assessed as DNA insertion by measuring change in gibbs free energy in presence of triggered form of compound by fluorescence spectroscopic analysis; type: nucleic-acid assay; settings: Bos taurus
Supercoiled DNA [29] = assay: Induction of supercoiled pBR322 DNA (unknown origin) cleavage at 50 uM incubated for 1 hr under pH 5.5 to 9.5 condition by agarose gel electrophoresis analysis; type: nucleic-acid assay
KPL-4 [30] = assay: Antitumor activity against human KPL-4 cells xenografted with BALB/c mouse assessed as reduction in tumor mass at 0.05 mg/kg,iv administrated once per week for 2 weeks; type: functional, organism-based
Supercoiled DNA [31] = assay: Induction of supercoiled pBR322 DNA (unknown origin) cleavage at 50 uM incubated for 1 hr in presence of actinomycin D by agarose gel electrophoresis analysis; type: nucleic-acid assay
Supercoiled DNA [32] = assay: Induction of supercoiled pBR322 DNA (unknown origin) cleavage at 50 uM incubated for 1 hr in presence of NADPH by agarose gel electrophoresis analysis; type: nucleic-acid assay

Activity (DNA): inactive
Activity (Supercoiled DNA [3]): Active
Activity (Supercoiled DNA [5]): inactive
Activity (Supercoiled DNA [8]): Active
Activity (Supercoiled DNA [12]): inactive
Activity (Supercoiled DNA [13]): inactive
Activity (Supercoiled DNA [14]): inactive
Activity (Supercoiled DNA [16]): inactive
Activity (Supercoiled DNA [21]): inactive
EC50 (Supercoiled DNA [23]): 17.3 nM
deltaG (Calf thymus DNA [24]): -7.98 kcal/mol
Activity (Supercoiled DNA [25]): Active
deltaG (Calf thymus DNA [27]): -23.8 kcal/mol
deltaG (Calf thymus DNA [28]): -18.1 kcal/mol
Activity (Supercoiled DNA [29]): Active
Activity (Supercoiled DNA [31]): inactive
Activity (Supercoiled DNA [32]): inactive
Compound: COc1ccc2c(c1OC)C(=O)c1c3c(cc(O)c1C2=O)[C@@]12O[C@@]1([C@@H](C)O)[C@H](C#C/C=C\C#C[C@H]2O)N3
Activity [1]: Non-Toxic
Activity [2]: Non-Toxic
Activity [4]: Non-Toxic
Activity (KPL-4 [6]): Active
Activity [7]: Non-Toxic
Activity [9]: Non-Toxic
Activity [10]: Non-Toxic
Activity [11]: Non-Toxic
IC50 at 72 h [15]: 6.8 nM
IC50 (A549): 1.3 nM
IC50 [17]: 0.1 nM
Activity [18]: Non-Toxic
IC50 (Jurkat): 0.1 nM
Activity [19]: Non-Toxic
Activity [20]: Non-Toxic
IC50 (Caco-2): 37.9 nM
Activity [22]: Non-Toxic
IC50 at 72 h [26]: 6 nM
Activity (KPL-4 [30]): Active
